Test results published in paper PMC8286840, “Identifying SARS-CoV-2 antiviral compounds by screening for small molecule inhibitors of Nsp3 papain-like protease” (Biochemical Journal, 2021).
Structures can show the parent of a compound that is named as a salt. Where two headings read alike, the source gives them in different places.

Tests used:
[1] = target: T1, SARS-CoV-2 PLpro (nsp3 1564–1878) (Severe acute respiratory syndrome coronavirus 2, UniProt P0DTD1); assay: biochemical; set-up: FRET-quenched peptide (Pro3) cleavage by PLpro, 10 min pre-incubation, slope over 20 min, normalised to no-compound control; conditions: low concentration screen, read-out: % of control remaining
[2] = target: T1, SARS-CoV-2 PLpro (nsp3 1564–1878); assay: biochemical; set-up: FRET-quenched peptide (Pro3) cleavage by PLpro, 10 min pre-incubation, slope over 20 min, normalised to no-compound control; conditions: high concentration screen, read-out: % of control remaining

Structure (SMILES): C[C@@H]1O[C@@H](O[C@H]2[C@H](Oc3cc(O)c4c(=O)c(O)c(-c5ccc(O)cc5)oc4c3)O[C@H](CO)[C@@H](O)[C@@H]2O)[C@H](O)[C@H](O)[C@H]1O [Kaempferol-7-neohesperidoside]
- remaining activity at 1.25 µM ([1]; Well no.=3307): 102%
- remaining activity at 3.75 µM ([2]; Well no.=3307): 103%

Structure (SMILES): COc1ccc(CNc2nc(N3CCC[C@H]3CO)ncc2C(=O)NCc2ncccn2)cc1Cl [Avanafil]
- remaining activity at 1.25 µM ([1]; Well no.=5078): 101%
- remaining activity at 3.75 µM ([2]; Well no.=5078): 100%

Structure (SMILES): COc1cc2nc(N3CCCN(C)CC3)nc(NC3CCN(Cc4ccccc4)CC3)c2cc1OC [BIX01294]
- remaining activity at 1.25 µM ([1]; Well no.=5180): 102%
- remaining activity at 3.75 µM ([2]; Well no.=5180): 99.6%

Structure (SMILES): Nc1ccc(S(=O)(=O)Nc2nccs2)cc1 [Sulfathiazole]
- remaining activity at 1.25 µM ([1]; Well no.=4937): 98.9%
- remaining activity at 3.75 µM ([2]; Well no.=4937): 95.6%

Structure (SMILES): O=C(Nc1cc(Cl)cc2c1[nH]c1cnccc12)c1cccnc1 [IKK Inhibitor X]
- remaining activity at 1.25 µM ([1]; Well no.=2445): 97.8%
- remaining activity at 3.75 µM ([2]; Well no.=2445): 101%

Structure (SMILES): CN(C)CCCN1c2ccccc2Sc2ccccc21 [Promazine hydrochloride]
- remaining activity at 1.25 µM ([1]; Well no.=1155): 104%
- remaining activity at 3.75 µM ([2]; Well no.=1155): 102%

Structure (SMILES): CN(N=O)C(=O)N[C@@H](C=O)[C@@H](O)[C@H](O)[C@H](O)CO [Streptozocin]
- remaining activity at 1.25 µM ([1]; Well no.=3317): 100%
- remaining activity at 3.75 µM ([2]; Well no.=3317): 103%

Structure (SMILES): N#CC(c1ccc(Cl)cc1)c1c(Cl)cc(-n2ncc(=O)[nH]c2=O)cc1Cl (centres unmarked) [Diclazuril]
- remaining activity at 1.25 µM ([1]; Well no.=5268): 91.9%
- remaining activity at 3.75 µM ([2]; Well no.=5268): 96.8%

Structure (SMILES): COc1cc(C(O)CO)ccc1OS(=O)(=O)O (centres unmarked) [MHPG sulfate potassium]
- remaining activity at 1.25 µM ([1]; Well no.=710): 93%
- remaining activity at 3.75 µM ([2]; Well no.=710): 90.8%

Structure (SMILES): CC(C)Oc1cccnc1N(C)C1CCN(Cc2ccccc2)CC1 [U-101958 maleate]
- remaining activity at 1.25 µM ([1]; Well no.=1526): 93.8%
- remaining activity at 3.75 µM ([2]; Well no.=1526): 92.1%

Structure (SMILES): COc1cccc(OC)c1C(=O)N[C@@H]1C(=O)N2[C@@H]1SC(C)(C)[C@@H]2C(=O)O [Methicillin (sodium salt)]
- remaining activity at 1.25 µM ([1]; Well no.=7448): 100%
- remaining activity at 3.75 µM ([2]; Well no.=7448): 99.6%

Structure (SMILES): Cc1ccc2c(c1)C1(CCN(CCc3nc(-c4ccccc4)oc3C)CC1)OC(=O)N2 [RS 504393]
- remaining activity at 1.25 µM ([1]; Well no.=8391): 99.2%
- remaining activity at 3.75 µM ([2]; Well no.=8391): 95.2%

Structure (SMILES): COc1ccc(-n2nc(C(N)=O)c3c2C(=O)N(c2ccc(N4CCCCC4=O)cc2)CC3)cc1 [Apixaban]
- remaining activity at 1.25 µM ([1]; Well no.=5331): 99.7%
- remaining activity at 3.75 µM ([2]; Well no.=5331): 100%

Structure (SMILES): NC(=NCCC[C@H](N)C(=O)O)NO [NG-Hydroxy-L-arginine acetate]
- remaining activity at 1.25 µM ([1]; Well no.=660): 96.5%
- remaining activity at 3.75 µM ([2]; Well no.=660): 96.5%

Structure (SMILES): [N-]=[N+]=Nc1ccc(C(=O)CSC[C@H](NC(=O)CC[C@H](N)C(=O)O)C(=O)NCC(=O)O)cc1 [S-(p-Azidophenacyl)glutathione]
- remaining activity at 1.25 µM ([1]; Well no.=105): 107%
- remaining activity at 3.75 µM ([2]; Well no.=105): 110%

Structure (SMILES): C[N+]1(C)[C@@H]2C[C@@H](OC(=O)[C@H](CO)c3ccccc3)C[C@H]1[C@@H]1O[C@@H]12 [(-)-Scopolamine methyl bromide]
- remaining activity at 1.25 µM ([1]; Well no.=1510): 96.7%
- remaining activity at 3.75 µM ([2]; Well no.=1510): 97.5%

Structure (SMILES): CN1CCN(c2nc3ccccc3nc2Cl)CC1 [VUF 10166]
- remaining activity at 1.25 µM ([1]; Well no.=4831): 99.1%
- remaining activity at 3.75 µM ([2]; Well no.=4831): 103%

Structure (SMILES): CN(C)c1nc(N)c(C(=O)NC(=N)N)nc1Cl [5-(N,N-Dimethyl)amiloride hydrochloride]
- remaining activity at 1.25 µM ([1]; Well no.=63): 102%
- remaining activity at 3.75 µM ([2]; Well no.=63): 99%

Structure (SMILES): N#C[C@@H]1C[C@@H]2C[C@@H]2N1C(=O)[C@@H](N)C12CC3CC(CC(O)(C3)C1)C2 [Saxagliptin hydrate]
- remaining activity at 1.25 µM ([1]; Well no.=8254): 104%
- remaining activity at 3.75 µM ([2]; Well no.=8254): 102%

Structure (SMILES): O=c1oc2c(O)c(O)cc3c(=O)oc4c(O)c(O)cc1c4c23 [Ellagic acid]
- remaining activity at 1.25 µM ([1]; Well no.=3346): 99.4%
- remaining activity at 3.75 µM ([2]; Well no.=3346): 101%

Structure (SMILES): COc1cc(C(N)=O)ccc1NC(=O)[C@@H]1N[C@@H](CC(C)(C)C)[C@@]2(C(=O)Nc3cc(Cl)ccc32)[C@H]1c1cccc(Cl)c1F [RO8994]
- remaining activity at 1.25 µM ([1]; Well no.=7108): 92.4%
- remaining activity at 3.75 µM ([2]; Well no.=7108): 89.6%

Structure (SMILES): C[C@H]1O[C@H](O[C@H]2[C@H](O)[C@@H](O)[C@@H](O[C@H]3[C@H](O)[C@@H](O)C(O)O[C@@H]3CO)O[C@@H]2CO)[C@H](O)[C@@H](O)[C@@H]1N[C@H]1C=C(CO)[C@@H](O)[C@H](O)[C@H]1O (some centres unmarked) [Acarbose]
- remaining activity at 1.25 µM ([1]; Well no.=5149): 101%
- remaining activity at 3.75 µM ([2]; Well no.=5149): 104%

Structure (SMILES): CN1CCc2cc3c(cc2[C@H]1[C@@H]1OC(=O)c2c1ccc1c2OCO1)OCO3 [(+)-Bicuculline]
- remaining activity at 1.25 µM ([1]; Well no.=369): 103%
- remaining activity at 1.25 µM ([1]; Well no.=3679): 99.7%
- remaining activity at 3.75 µM ([2]; Well no.=369): 98.1%
- remaining activity at 3.75 µM ([2]; Well no.=3679): 99.2%

Structure (SMILES): CC(C)(C)c1cc(C=C(C#N)C#N)cc(C(C)(C)C)c1O [Tyrphostin A9]
- remaining activity at 1.25 µM ([1]; Well no.=1426): 99.8%
- remaining activity at 3.75 µM ([2]; Well no.=1426): 101%

Structure (SMILES): O=c1ccn([C@@H]2O[C@H](COP(=O)(O)OP(=O)(O)OP(=O)(O)O)[C@@H](O)[C@H]2O)c(=O)[nH]1 [Uridine triphosphate]
- remaining activity at 1.25 µM ([1]; Well no.=8933): 95.1%
- remaining activity at 3.75 µM ([2]; Well no.=8933): 97.6%

Structure (SMILES): COc1cccc(CNc2ccc(S(=O)(=O)Nc3nc4ccccc4s3)cc2)c1O [ML355]
- remaining activity at 1.25 µM ([1]; Well no.=7648): 97.9%
- remaining activity at 3.75 µM ([2]; Well no.=7648): 96.7%

Structure (SMILES): COC(=O)C1=C(C)NC(C)=C(C(=O)OCCN2CCN(C(c3ccccc3)c3ccccc3)CC2)C1c1cccc([N+](=O)[O-])c1 (centres unmarked) [Manidipine]
- remaining activity at 1.25 µM ([1]; Well no.=1788): 104%
- remaining activity at 3.75 µM ([2]; Well no.=1788): 99.9%

Structure (SMILES): CN(C)c1cc(NC(=O)CNC(C)(C)C)c(O)c2c1C[C@H]1C[C@H]3[C@H](N(C)C)C(O)=C(C(N)=O)C(=O)[C@@]3(O)C(O)=C1C2=O [Tigecycline]
- remaining activity at 1.25 µM ([1]; Well no.=4813): 99%
- remaining activity at 3.75 µM ([2]; Well no.=4813): 107%

Structure (SMILES): N[C@@H](CCC(=O)O)C(=O)O [L-Glutamic acid hydrochloride]
- remaining activity at 1.25 µM ([1]; Well no.=619): 102%
- remaining activity at 3.75 µM ([2]; Well no.=619): 97.5%

Structure (SMILES): OC(CN1CCN(c2cccc(Cl)c2)CC1)C(c1ccccc1)c1ccccc1 (centres unmarked) [BRL 15572]
- remaining activity at 1.25 µM ([1]; Well no.=131): 95.9%
- remaining activity at 3.75 µM ([2]; Well no.=131): 98.1%

Structure (SMILES): COc1cc2cc(c1Cl)N(C)C(=O)C[C@H](OC(=O)[C@H](C)N(C)C(=O)CCC(C)(C)SSCCCC(=O)ON1C(=O)CCC1=O)[C@]1(C)O[C@H]1[C@H](C)[C@@H]1C[C@@](O)(NC(=O)O1)[C@H](OC)/C=C\C=C(\C)C2 [SPDB-DM4]
- remaining activity at 1.25 µM ([1]; Well no.=7700): 106%
- remaining activity at 3.75 µM ([2]; Well no.=7700): 106%

Structure (SMILES): CCCCCCCCCCC/C=C/CCCCCC(=O)O [7(E)-Nonadecenoic acid]
- remaining activity at 1.25 µM ([1]; Well no.=4366): 105%
- remaining activity at 3.75 µM ([2]; Well no.=4366): 97.4%

Structure (SMILES): Cc1cc2c(OCC(CNC(C)(C)C)OC(=O)c3ccccc3)cccc2[nH]1 (centres unmarked) [Bopindolol]
- remaining activity at 1.25 µM ([1]; Well no.=1892): 96.2%
- remaining activity at 3.75 µM ([2]; Well no.=1892): 97.2%
